{"source": "paper PMC139962", "about": "(Lipids in Health and Disease, 2002)", "key": {"[1]": {"target": "AEA membrane transporter (AMT)", "assay_type": "biochemical, human", "settings": "for Ki: read-out: Ki (inhibition of AMT); for IC50: read-out: IC50 of inhibition of [3H]AEA uptake; for inhibition of [3H]AEA uptake: 100 µM"}, "[2]": {"tested_on": "AEA membrane transporter (AMT)", "assay": "[3H]AEA uptake by human healthy brain", "assay_type": "biochemical", "settings": "for IC50: read-out: IC50 of inhibition of [3H]AEA uptake, 15 min at 37°C"}, "[3]": {"tested_on": "AEA membrane transporter (AMT)", "assay": "[3H]AEA uptake by mouse brain", "assay_type": "biochemical", "settings": "mouse brain synaptosomes"}, "[4]": {"tested_on": "AEA membrane transporter (AMT)", "assay": "[3H]AEA uptake by rat brain", "assay_type": "biochemical", "settings": "rat brain synaptosomes"}}, "note": "Where two headings read alike, the source gives them in different places.", "data": [{"smiles": "NC(=O)CCC(N)C(=O)O", "note": "(stereo in doubt) [D-Glutamine]", "values": [{"measurement": "Ki", "setting": "[1]", "value": "0.525 ± 0.05", "unit": "µM"}]}, {"smiles": "CCCCC/C=C\\C/C=C\\C/C=C\\C/C=C\\CCCC(=O)OC(CO)CO", "note": "[2-AG, 2-arachidonoylglycerol]", "values": [{"measurement": "effect on accumulation of 200 nM [3H]AEA", "setting": "[1]", "value": "inhibited almost completely"}]}, {"smiles": "CCCCC/C=C\\C/C=C\\C/C=C\\C/C=C\\CCCC(=O)NCCO", "note": "[AEA, N-arachidonoylethanolamine]", "values": [{"measurement": "Q10 (ratio of AEA uptake at 30°C and 20°C)", "setting": "[1]", "value": "~ 1.5"}, {"measurement": "Vmax of AEA uptake", "setting": "[1]", "value": "219 ± 19", "unit": "pmol/min per mg protein"}, {"measurement": "effect on accumulation of 200 nM [3H]AEA", "setting": "[1]", "value": "fully inhibited"}, {"measurement": "Km", "setting": "[1]; read-out: apparent Km of AEA uptake", "value": "0.793 ± 0.128", "unit": "µM"}, {"measurement": "Q10 (ratio of AEA uptake at 30°C and 20°C)", "setting": "[2]; HB synaptosomes", "value": "~ 1.5"}, {"measurement": "Vmax of AEA uptake", "setting": "[2]; human healthy brain synaptosomes, 15 min, 0-1000 nM [3H]AEA, 37°C minus 4°C", "value": "374 ± 38", "unit": "pmol/min per mg protein"}, {"measurement": "Vmax of AEA uptake", "setting": "[3]", "value": "370 ± 23", "unit": "pmol/min per mg protein"}, {"measurement": "Km", "setting": "[3]; read-out: Km of AEA uptake", "value": "0.66 ± 0.08", "unit": "µM"}, {"measurement": "Vmax of AEA uptake", "setting": "[4]", "value": "357 ± 18", "unit": "pmol/min per mg protein"}, {"measurement": "Km", "setting": "[4]; read-out: Km of AEA uptake", "value": "0.483 ± 0.052", "unit": "µM"}]}, {"smiles": "CCCCC/C=C\\C/C=C\\C/C=C\\C/C=C\\CCCC(=O)Nc1ccc(O)cc1", "note": "[AM404, N-(4-hydroxyphenyl)-arachidonoylamide]", "values": [{"measurement": "IC50", "setting": "[1]", "value": "~7", "unit": "µM"}, {"measurement": "IC50", "setting": "[2]; HB synaptosomes", "value": "~7", "unit": "µM"}]}, {"smiles": "N[C@H](CCC(=O)O)C(=O)O", "note": "[D-Glutamate]", "values": [{"measurement": "Ki", "setting": "[1]", "value": "1.23 ± 0.11", "unit": "µM"}]}, {"smiles": "N[C@@H](CCC(=O)O)C(=O)O", "note": "[L-Glutamate]", "values": [{"measurement": "Ki", "setting": "[1]", "value": "4 ± 0.37", "unit": "µM"}]}, {"smiles": "NC(=O)CC[C@H](N)C(=O)O", "note": "[L-Glutamine]", "values": [{"measurement": "Ki", "setting": "[1]", "value": "1.1 ± 0.09", "unit": "µM"}]}, {"smiles": "CCN1C(=O)C=CC1=O", "note": "[N-ethylmaleimide]", "values": [{"measurement": "inhibition of [3H]AEA uptake", "setting": "[1]", "value": "~ 50%"}]}, {"smiles": "O=S(=O)(F)Cc1ccccc1", "note": "[PMSF, phenylmethylsulfonyl fluoride]", "values": [{"measurement": "inhibition of [3H]AEA uptake", "setting": "[1]", "value": "~ 50%"}]}, {"smiles": "N=c1c[n+](N2CCOCC2)[n-]o1", "note": "[SIN-1, 3-morpholinosydnonimine]", "values": [{"measurement": "enhancement of [3H]AEA uptake", "setting": "[1]", "value": "180–220%"}]}, {"smiles": "CCCCC/C=C\\C/C=C\\C/C=C\\C/C=C\\CCCC(=O)Nc1ccc(O)cc1C", "note": "[VDM11]", "values": [{"measurement": "IC50", "setting": "[1]", "value": "~7", "unit": "µM"}, {"measurement": "IC50", "setting": "[2]; HB synaptosomes", "value": "~7", "unit": "µM"}]}, {"smiles": "CCCCC/C=C\\C/C=C\\C/C=C\\C/C=C\\CCCC(=O)O", "note": "[arachidonic acid]", "values": [{"measurement": "effect on accumulation of 200 nM [3H]AEA", "setting": "[1]", "value": "ineffective"}]}, {"smiles": "NCCO", "note": "[ethanolamine]", "values": [{"measurement": "effect on accumulation of 200 nM [3H]AEA", "setting": "[1]", "value": "ineffective"}]}, {"smiles": "O=C(O)CI", "note": "[iodoacetic acid]", "values": [{"measurement": "inhibition of [3H]AEA uptake", "setting": "[1]", "value": "~ 50%"}]}, {"smiles": "CCCCC/C=C\\C[C@@H](O)/C=C/C=C/C=C\\[C@@H](O)CCCC(=O)O", "note": "[leukotriene B4]", "values": [{"measurement": "effect on accumulation of 200 nM [3H]AEA", "setting": "[1]", "value": "not affected"}]}, {"smiles": "CCCCC[C@H](O)/C=C/[C@H]1[C@H](O)CC(=O)[C@@H]1C/C=C\\CCCC(=O)O", "note": "[prostaglandin E2]", "values": [{"measurement": "effect on accumulation of 200 nM [3H]AEA", "setting": "[1]", "value": "not affected"}]}]}
